Measurements reported in patent US20090306133A1, “New Acetyl Coenzyme A Carboxylase (ACC) Inhibitors And Uses In Treatments Of Obesity And Diabetes Mellitus - 087” (ASTRAZENECA AB, priority 2007, published 2009).

Tests used:
[1] = target: Human recombinant Acetyl-CoA Carboxylase 2 (ACC2) (Homo sapiens, UniProt O00763); experiment: Assay X: ACC2 inhibition, inorganic phosphate (malachite green); format: biochemical; details: Assay X: 37° C., 1.5 h, 5 min pre-incubation
Procedure, shortened: (§1)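 Human recombinant enzyme pre-incubated 5 min with compound before substrate addition; reaction run 1.5 h, then inorganic phosphate detected by malachite green absorbance at 660 nm. Ten concentrations tested in triplicate; apparent IC50 from four-parameter curve fit.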

[2] = target: Human recombinant Acetyl-CoA Carboxylase 1 (ACC1) (Homo sapiens, UniProt Q13085); experiment: Assay X: ACC1 inhibition, inorganic phosphate (malachite green); format: biochemical; details: Assay X: 37° C., 1.5 h, 5 min pre-incubation
Procedure, shortened: as §1

Human recombinant Acetyl-CoA Carboxylase 2 (ACC2), sequence (O00763 whole entry): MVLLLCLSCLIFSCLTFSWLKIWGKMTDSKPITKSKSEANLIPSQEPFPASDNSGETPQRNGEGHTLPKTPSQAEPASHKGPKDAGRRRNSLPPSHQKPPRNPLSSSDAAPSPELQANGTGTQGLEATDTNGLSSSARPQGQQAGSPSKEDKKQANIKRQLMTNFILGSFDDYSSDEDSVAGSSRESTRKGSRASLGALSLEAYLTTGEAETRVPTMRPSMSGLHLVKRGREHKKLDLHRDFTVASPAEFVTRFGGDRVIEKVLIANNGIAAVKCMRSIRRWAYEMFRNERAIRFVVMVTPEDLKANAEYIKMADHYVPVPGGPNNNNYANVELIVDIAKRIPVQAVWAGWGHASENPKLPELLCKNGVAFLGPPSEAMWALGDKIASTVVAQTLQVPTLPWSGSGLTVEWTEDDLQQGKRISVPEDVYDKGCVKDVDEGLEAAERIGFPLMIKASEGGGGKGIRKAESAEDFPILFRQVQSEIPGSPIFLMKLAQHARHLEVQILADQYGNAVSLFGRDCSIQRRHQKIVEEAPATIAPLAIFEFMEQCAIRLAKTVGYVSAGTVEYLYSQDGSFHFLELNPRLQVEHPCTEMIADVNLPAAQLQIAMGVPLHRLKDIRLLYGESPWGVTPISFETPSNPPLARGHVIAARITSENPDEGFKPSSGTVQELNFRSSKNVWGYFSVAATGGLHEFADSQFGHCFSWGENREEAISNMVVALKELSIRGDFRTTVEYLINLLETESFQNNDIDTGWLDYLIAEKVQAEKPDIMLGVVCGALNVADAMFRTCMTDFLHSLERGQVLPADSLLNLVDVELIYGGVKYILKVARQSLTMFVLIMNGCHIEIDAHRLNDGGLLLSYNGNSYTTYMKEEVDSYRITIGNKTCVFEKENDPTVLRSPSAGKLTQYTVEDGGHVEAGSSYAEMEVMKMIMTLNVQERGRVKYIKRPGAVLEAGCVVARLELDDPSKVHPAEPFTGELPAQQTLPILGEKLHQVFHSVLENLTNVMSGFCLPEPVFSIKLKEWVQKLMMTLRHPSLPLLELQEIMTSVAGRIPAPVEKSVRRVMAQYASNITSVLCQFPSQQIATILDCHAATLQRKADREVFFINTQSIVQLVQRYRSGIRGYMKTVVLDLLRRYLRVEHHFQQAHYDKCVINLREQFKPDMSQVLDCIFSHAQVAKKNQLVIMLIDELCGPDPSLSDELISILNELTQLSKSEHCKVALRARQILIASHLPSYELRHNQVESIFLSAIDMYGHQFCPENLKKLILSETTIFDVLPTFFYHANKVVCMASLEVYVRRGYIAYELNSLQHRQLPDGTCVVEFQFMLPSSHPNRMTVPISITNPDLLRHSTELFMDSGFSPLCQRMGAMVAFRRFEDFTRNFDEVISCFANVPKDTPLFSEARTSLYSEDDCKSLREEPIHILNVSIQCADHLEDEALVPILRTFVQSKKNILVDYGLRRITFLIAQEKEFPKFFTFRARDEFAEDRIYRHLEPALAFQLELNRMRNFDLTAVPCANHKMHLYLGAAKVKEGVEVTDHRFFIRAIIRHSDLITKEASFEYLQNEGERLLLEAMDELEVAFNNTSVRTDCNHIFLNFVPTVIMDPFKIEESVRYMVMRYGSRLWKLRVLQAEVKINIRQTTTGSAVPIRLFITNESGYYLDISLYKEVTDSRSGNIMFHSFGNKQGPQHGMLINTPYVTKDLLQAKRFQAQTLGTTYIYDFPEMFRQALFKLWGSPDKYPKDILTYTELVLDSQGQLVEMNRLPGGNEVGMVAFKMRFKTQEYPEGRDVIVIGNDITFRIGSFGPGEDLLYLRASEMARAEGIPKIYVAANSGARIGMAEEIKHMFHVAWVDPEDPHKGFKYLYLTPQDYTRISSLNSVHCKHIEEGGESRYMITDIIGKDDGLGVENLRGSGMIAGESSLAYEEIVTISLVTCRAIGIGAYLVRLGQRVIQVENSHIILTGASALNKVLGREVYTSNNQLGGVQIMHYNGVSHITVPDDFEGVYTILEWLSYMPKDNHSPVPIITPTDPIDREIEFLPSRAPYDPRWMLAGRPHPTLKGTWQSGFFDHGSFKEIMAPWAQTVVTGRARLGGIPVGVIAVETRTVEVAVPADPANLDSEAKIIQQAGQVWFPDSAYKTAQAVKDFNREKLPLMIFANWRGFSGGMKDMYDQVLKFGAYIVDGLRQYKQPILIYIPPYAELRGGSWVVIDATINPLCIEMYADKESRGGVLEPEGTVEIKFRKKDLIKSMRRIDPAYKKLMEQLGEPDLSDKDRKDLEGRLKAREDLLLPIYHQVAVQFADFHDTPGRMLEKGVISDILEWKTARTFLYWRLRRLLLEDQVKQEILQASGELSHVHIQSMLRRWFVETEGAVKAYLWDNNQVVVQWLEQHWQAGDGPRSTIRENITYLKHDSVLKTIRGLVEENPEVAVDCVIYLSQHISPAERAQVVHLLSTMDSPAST

Row | Compound | IC50 [1] | IC50 [2]
1 | CN(C)CCNC(=O)C1CN(c2cc(C(=O)NC[C@H]3CC[C@H](CNC(=O)OC(C)(C)C)CC3)c3ccccc3n2)C1 [Example 217, tert-Butyl ({trans-4-[({[2-(3-{[2-(dimethylamino)ethyl]carbamoyl}azetidin-1-yl)quinolin-4-yl]carbonyl}amino)methyl]cyclohexyl}methyl)carbamate] | 0.73 µM | 4.7 µM
2 | CC(C)(C)OC(=O)NC[C@H]1CC[C@H](CNC(=O)c2cc(-c3ccc(N)cc3)nc3ccccc23)CC1 [Example 218, tert-Butyl ({trans-4-[({[2-(4-aminophenyl)quinolin-4-yl]carbonyl}amino)-methyl]cyclohexyl}methyl)carbamate] | 0.06 µM | 0.21 µM
3 | CN(C)CCN1CCN(c2cc(C(=O)NC[C@H]3CC[C@H](CNC(=O)OC(C)(C)C)CC3)c3ccccc3n2)CC1=O [Example 219, tert-Butyl {[trans-4-({[(2-{4-[2-(dimethylamino)ethyl]-3-oxopiperazin-1-yl}quinolin-4-yl)carbonyl]amino}methyl)cyclohexyl]methyl}carbamate] | 0.9 µM | 4.58 µM
4 | CC(C)(C)OC(=O)NC[C@H]1CC[C@H](CNC(=O)c2c(N)sc3ccccc23)CC1 [Example 222, tert-Butyl {[trans-4-({[(2-amino-1-benzothiophen-3-yl)carbonyl]amino}methyl)-cyclohexyl]methyl}carbamate] | 3.4 µM | 9.1 µM
5 | CCNC(=O)Nc1sc2ccccc2c1C(=O)NC[C@H]1CC[C@H](CNC(=O)OC(C)(C)C)CC1 [Example 223, tert-Butyl [(trans-4-{[({2-[(ethylcarbamoyl)amino]-1-benzothiophen-3-yl}carbonyl)amino]methyl}cyclohexyl)methyl]carbamate] | 0.23 µM | 1.16 µM
6 | CN(C)CCC1CCN(c2cc(C(=O)NC[C@H]3CC[C@H](CNC(=O)OC4CCOCC4)CC3)c3ccccc3n2)CC1 [Example 224, Tetrahydro-2H-pyran-4-yl {[trans-4-({[(2-{4-[2-(dimethylamino)ethyl]piperidin-1-yl}quinolin-4-yl)carbonyl]amino}methyl)cyclohexyl]methyl}carbamate] | 0.68 µM | 6.31 µM
7 | CC(C)(C)OC(=O)NC[C@H]1CC[C@H](CNC(=O)c2cc(N3CCC(CCN4CC(C(=O)O)C4)CC3)nc3ccccc23)CC1 [Example 235, 1-{2-[1-(4-{[(trans-4-{[(tert-Butoxycarbonyl)amino]methyl}cyclohexyl)methyl]-carbamoyl}quinolin-2-yl)piperidin-4-yl]ethyl}azetidine-3-carboxylic Acid] | 0.23 µM | 1.84 µM
8 | CC(C)(C)OC(=O)NC[C@H]1CC[C@H](CNC(=O)c2cc(-c3cn[nH]c3)nc(-c3cccc(CN)c3)c2)CC1 [Example 239, tert-Butyl [(trans-4-{[({2-[3-(aminomethyl)phenyl]-6-(1H-pyrazol-4-yl)pyridin-4-yl}carbonyl)amino]methyl}cyclohexyl)methyl]carbamate] | 0.35 µM | 0.74 µM
9 | CC(C)(C)OC(=O)NC[C@H]1CC[C@H](CNC(=O)c2cc(-c3cccnc3)nc(-c3cccc(CN)c3)c2)CC1 [Example 240, tert-Butyl [(trans-4-{[({6-[3-(aminomethyl)phenyl]-2,3′-bipyridin-4-yl}carbonyl)amino]methyl}cyclohexyl)methyl]carbamate] | 0.36 µM | 1.08 µM
10 | CC(C)(C)OC(=O)NC[C@H]1CC[C@H](CNC(=O)c2cc(-c3ccc(N)nc3)nc(-c3cccc(CN)c3)c2)CC1 [Example 241, tert-Butyl [(trans-4-{[({6′-amino-6-[3-(aminomethyl)phenyl]-2,3′-bipyridin-4-yl}carbonyl)amino]methyl}cyclohexyl)methyl]carbamate] | 0.11 µM | 0.26 µM
11 | CN(C)CCn1cc(-c2cc(C(=O)NC[C@H]3CC[C@H](CNC(=O)OC(C)(C)C)CC3)c3ccccc3n2)cn1 [Example 242, tert-Butyl {[trans-4-({[(2-{1-[2-(dimethylamino)ethyl]-1H-pyrazol-4-yl}quinolin-4-yl)carbonyl]amino}methyl)cyclohexyl]methyl}carbamate] | 0.24 µM | 1.33 µM

Second part, the compound after the results:

Row | IC50 [1] | IC50 [2] | Compound
12 | 1.18 µM | 9.63 µM | CC(C)(C)OC(=O)NC[C@H]1CC[C@H](CNC(=O)c2cc(N3CCN(C(=O)CO)CC3)nc3ccccc23)CC1 [Example 220, tert-Butyl [(trans-4-{[({2-[4-(hydroxyacetyl)piperazin-1-yl]quinolin-4-yl}carbonyl)amino]methyl}cyclohexyl)methyl]carbamate]
13 | 1.61 µM | > 20 µM | CC(C)(C)OC(=O)NC[C@H]1CC[C@H](CNC(=O)c2cc(N3CCC(OCc4ccc(F)cc4)CC3)nc3ccccc23)CC1 [Example 221, tert-Butyl {[trans-4-({[(2-{4-[(4-fluorobenzyl)oxy]piperidin-1-yl}quinolin-4-yl)carbonyl]amino}methyl)cyclohexyl]methyl}carbamate]
14 | 0.11 µM | 0.95 µM | CN1CCC(C2CCN(c3cc(C(=O)NC[C@H]4CC[C@H](CNC(=O)OC(C)(C)C)CC4)c4ccccc4n3)CC2)CC1 [Example 225, tert-Butyl ({trans-4-[({[2-(1′-methyl-4,4′-bipiperidin-1-yl)quinolin-4-yl]carbonyl}amino)methyl]cyclohexyl}methyl)carbamate]
15 | 0.2 µM | 1.63 µM | COCCNCCC1CCN(c2cc(C(=O)NC[C@H]3CC[C@H](CNC(=O)OC(C)(C)C)CC3)c3ccccc3n2)CC1 [Example 226, tert-Butyl ({trans-4-[({[2-(4-{2-[(2-methoxyethyl)amino]ethyl}piperidin-1-yl)quinolin-4-yl]carbonyl}amino)methyl]cyclohexyl}methyl)carbamate]
16 | 0.23 µM | 1.63 µM | COCCN(C)CCC1CCN(c2cc(C(=O)NC[C@H]3CC[C@H](CNC(=O)OC(C)(C)C)CC3)c3ccccc3n2)CC1 [Example 227, tert-Butyl({trans-4-[({[2-(4-{2-[(2-methoxyethyl)(methyl)-amino]ethyl}piperidin-1-yl)quinolin-4-yl]carbonyl}amino)-methyl]cyclohexyl}-methyl)carbamate]
17 | 0.21 µM | 1.52 µM | CC(C)(C)OC(=O)NC[C@H]1CC[C@H](CNC(=O)c2cc(N3CCC(CCNC4CCOCC4)CC3)nc3ccccc23)CC1 [Example 228, tert-Butyl{[trans-4-({[(2-{4-[2-(tetrahydro-2H-pyran-4-ylamino)ethyl]piperidin-1-yl}quinolin-4-yl)carbonyl]amino}-methyl)cyclohexyl]-methyl}carbamate]
18 | 0.11 µM | 0.92 µM | COC1CN(CCC2CCN(c3cc(C(=O)NC[C@H]4CC[C@H](CNC(=O)OC(C)(C)C)CC4)c4ccccc4n3)CC2)C1 [Example 229, tert-Butyl{[trans-4-({[(2-{4-[2-(3-methoxyazetidin-1-yl)ethyl]piperidin-1-yl}quinolin-4-yl)carbonyl]amino}-methyl)cyclohexyl]-methyl}carbamate]
19 | 0.08 µM | 0.7 µM | CC(C)(C)OC(=O)NC[C@H]1CC[C@H](CNC(=O)c2cc(N3CCC(CCN4CCCC4)CC3)nc3ccccc23)CC1 [Example 231, tert-Butyl[(trans-4-{[({2-[4-(2-pyrrolidin-1-ylethyl)piperidin-1-yl]quinolin-4-yl}carbonyl)amino]-methyl}cyclohexyl)-methyl]carbamate]
20 | 0.14 µM | 1.29 µM | CN(CCO)CCC1CCN(c2cc(C(=O)NC[C@H]3CC[C@H](CNC(=O)OC(C)(C)C)CC3)c3ccccc3n2)CC1 [Example 232, tert-Butyl({trans-4-[({[2-(4-{2-[(2-hydroxyethyl)(methyl)-amino]ethyl}piperidin-1-yl)quinolin-4-yl]carbonyl}amino)-methyl]cyclohexyl}-methyl)carbamate]
21 | 0.1 µM | 1.02 µM | CC(C)(C)OC(=O)NC[C@H]1CC[C@H](CNC(=O)c2cc(N3CCC(CCN4CC(O)C4)CC3)nc3ccccc23)CC1 [Example 233, tert-Butyl {[trans-4-({[(2-{4-[2-(3-hydroxyazetidin-1-yl)ethyl]piperidin-1-yl}quinolin-4-yl)carbonyl]amino}methyl)cyclohexyl]methyl}carbamate]
22 | 0.11 µM | 0.95 µM | CC(C)(C)OC(=O)NC[C@H]1CC[C@H](CNC(=O)c2cc(N3CCC(CCN4CCC4)CC3)nc3ccccc23)CC1 [Example 234, tert-Butyl [(trans-4-{[({2-[4-(2-azetidin-1-ylethyl)piperidin-1-yl]quinolin-4-yl}carbonyl)amino]methyl}cyclohexyl)methyl]carbamate]
23 | 0.08 µM | 0.55 µM | CC(C)(C)OC(=O)NC[C@H]1CC[C@H](CNC(=O)c2cc(N3CCC(CCN4CC(N)C4)CC3)nc3ccccc23)CC1 [Example 236, tert-Butyl {[trans-4-({[(2-{4-[2-(3-aminoazetidin-1-yl)ethyl]piperidin-1-yl}quinolin-4-yl)carbonyl]amino}methyl)cyclohexyl]methyl}carbamate]
24 | 0.14 µM | 1.09 µM | CN(C)CC(F)CC1CCN(c2cc(C(=O)NC[C@H]3CC[C@H](CNC(=O)OC(C)(C)C)CC3)c3ccccc3n2)CC1 (stereo partly drawn) [Example 237, tert-Butyl {[trans-4-({[(2-{4-[3-(dimethylamino)-2-fluoropropyl]piperidin-1-yl}quinolin-4-yl)carbonyl]amino}methyl)cyclohexyl]methyl}carbamate]
25 | 0.63 µM | 4.45 µM | CN(C)CCOC1CN(c2cc(C(=O)NC[C@H]3CC[C@H](CNC(=O)OC(C)(C)C)CC3)c3ccccc3n2)C1 [Example 238, tert-Butyl {[trans-4-({[(2-{3-[2-(dimethylamino)ethoxy]azetidin-1-yl}quinolin-4-yl)carbonyl]amino}methyl)cyclohexyl]methyl}carbamate]
